ChEMBL document CHEMBL1671736, “In vivo efficacy of anidulafungin against mature Candida albicans biofilms in a novel rat model of catheter-associated Candidiasis” (2010)
Values after ≈ are worked out from the molar mass of the structure shown. Active and inactive are the calls of the source. The rule behind the calls is not given here. *1 amine or outer side, *2 acyl side, *3 side chain or, on linkers, in order; H or OH if unused. Where a SMILES comes first, the peptide text is derived from it. Bridges are numbered along the chain shown (N, C = ends). [ ]: non-standard residue; d: D form. The star is where a group is joined. pTerphenylCO(4''-OnC5H11) = CCCCCOc1ccc(-c2ccc(-c3ccc(C(=O)*)cc3)cc2)cc1; Orn(4R-OH,5R-OH) = O=C([C@H](C[C@@H](O)[C@@H](O)N[*:3])N[*:1])[*:2]; hTyr(3S-OH,4S-OH) = N[C@H](C(=O)O)[C@H](O)[C@@H](O)c1ccc(O)cc1; Pro(3S-OH,4S-Me) = C[C@H]1CN[C@H](C(=O)O)[C@H]1O; Hyp = O=C(O)[C@@H]1C[C@@H](O)CN1

Columns and labels:
Candida albicans [1] = assay: Antimicrobial activity against Candida albicans SC5314 assessed as reduction of biofilm metabolic activity in in vitro catheter-associated rat model at 64 ug/ml by XTT assay; type: functional, organism-based
Candida albicans [2] = assay: Antimicrobial activity against Candida albicans SC5314 biofilms infected in Sprague-Dawley rat implanted subcutaneously with catheter fragments challenged Candida cells assessed as […] at 125 mg/kg, ip qd for 7 days (Rvb=2.92 +/- 0.34 log10 CFU/catheter fragment); type: functional
Candida albicans [3] = assay: Antimicrobial activity against Candida albicans SC5314 biofilms infected in Sprague-Dawley rat implanted subcutaneously with catheter fragments challenged Candida cells assessed as […] at 10 mg/kg, ip qd for 7 days (Rvb=2.92 +/- 0.34 log10 CFU/catheter fragment); type: functional
Candida albicans [4] = assay: Antimicrobial activity against Candida albicans SC5314 assessed as reduction of biofilm metabolic activity in in vitro catheter-associated rat model by XTT assay; type: functional

Compound | Activity (Candida albicans [1]) | log10cfu (Candida albicans [2]) | log10cfu (Candida albicans [3]) | MIC (Candida albicans [4])
OC(Cn1cncn1)(Cn1cncn1)c1ccc(F)cc1F [FLUCONAZOLE] | inactive | 3.01 |  | 
CCCCCOc1ccc(-c2ccc(-c3ccc(C(=O)N[C@H]4C[C@@H](O)[C@@H](O)NC(=O)[C@@H]5[C@@H](O)[C@@H](C)CN5C(=O)[C@H]([C@@H](C)O)NC(=O)[C@H]([C@H](O)[C@@H](O)c5ccc(O)cc5)NC(=O)[C@@H]5C[C@@H](O)CN5C(=O)[C@H]([C@@H](C)O)NC4=O)cc3)cc2)cc1 [ANIDULAFUNGIN] ({pTerphenylCO(4''-OnC5H11)}-[Orn(4R-OH,5R-OH)]T[Hyp][hTyr(3S-OH,4S-OH)]T[Pro(3S-OH,4S-Me)]; lactam 1-C) |  |  | 2.14 | 0.25 µg/mL (≈ 0.219 µM)
